The record followed here is article PMC12052742, “Engineering a newly identified alcohol dehydrogenase from Sphingobium Sp. for efficient utilization of nicotinamide cofactors biomimetics” (Bioresources and Bioprocessing, 2025).

Data set [1] relates to SpADH2 variant H43L. As to the kind of experiment: Substrate kinetic assay, H43L. As to conditions: 1a varied, cofactor (= label) fixed: 5 mM NAD^+ or 7.5 mM p-BANA^+. The data set is classed as biochemical, Sphingobium sp. SYK-6. Here is the method:
(§1) Specific activity of SpADH2 in substrate spectrum study was measured spectrophotometrically. PBS (pH 7.5) buffer was pre-heated at 30°C for 15 min. For NAD^+, 0.05 µg SpADH2 was added to the PBS buffer (100 µL), and a final concentration of 2 mM NAD^+ was added. For tsNCBs cofactor p-BANA^+, 5 µg SpADH2 and a final concentration of 7.5 mM p-BANA^+ was added. The mixture was carried out in a 96-well microplate, and a final concentration of 5 mM substrate was added to start the reaction. The microplate was incubated in 30°C for 1 h. Florescent probes (2-[2-(1,4-dihydro-1-methyl-3-quinolinyl)ethenyl]-1,3,3-trimethyl-3H-indolium) in a final concentration of 0.2 mM (100 µL) was added (Scheme S1), and the microplate was placed in a microplate reader immediately for measurement under 537 nm (Fomin et al. [2016]).
(§2) Kinetic analysis of SpADH2 and its variants were carried out following Michaelis-Menten equation or Michaelis-Menten excess substrate inhibition equation. For of the substrate kinetic assays, concentrations of cofactors were fixed at 5 mM for NAD^+ and 7.5 mM for p-BANA^+. For cofactor kinetic assays, the concentration of 1a was fixed at 5 mM.
(§3) Specific activity was determined spectrophotometrically as above except that gradient 1a (0−20 mM) or cofactor (0−35 mM) concentrations were applied.
(§4) Cofactor specificity ratio (CSR) represents the ratio of catalytic efficiency of p-BANA^+ to NAD^+ for each enzyme, and relative specificity (RS) stands for the CSR ratio of variants to WT (King et al. [2020]).

For data set [2], the system named is SpADH2. As to the kind of experiment: Cofactor spectrum of syringyl alcohol oxidation (HPLC specific activity), WT. The data set is classed as biochemical, Sphingobium sp. SYK-6. As to conditions: 1a 5 mM, cofactor 7.5 mM, pH 7.5, 30℃; for utilization of the tsNCB by SpADH2 (in words): 5 µg SpADH2, 1 h. Here is the method:
Fig. 2 Cofactor spectrum of syringyl alcohol oxidation catalyzed by SpADH2. The darkness of the background color for each cofactor stands for the activity of SpADH2 utilizing various cofactors. (a) NAD(P) ^+ and NMN^+ are shown in purple background. (b) tsNCBs are shown in cyan background. The evaluation of cofactor spectrum of SpADH2 was carried out under following conditions: 50 mM PBS buffer (pH 7.5) and 30℃, with 1a (5 mM) as substrate and different cofactors (7.5 mM) as cofactor. For NAD(P)^+ and NMN^+, 0.05 µg SpADH2 was added, and for tsNCBs, 5 µg SpADH2 was added. The results were analyzed by HPLC after 1 h reaction
(§5) Specific activity of SpADH2 in cofactor spectrum study was determined by HPLC analysis. PBS (pH 7.5) buffer was pre-heated at 30°C for 15 min. For NAD(P)^+ and NMN^+, 0.05 µg SpADH2 was added to PBS buffer (100 µL). For tsNCBs, 5 µg SpADH2 was added. A final concentration of 7.5 mM cofactor was added to the reaction mixture. Finally, a final concentration of 5 mM substrate was added to start the reaction. The reactions were conducted at 30°C.
(§6) One unit of enzyme activity is defined as the amount of enzyme required to form 1 µmol 1b per minute at pH 7.5 and 30°C. Same reaction without cofactor was used as a blank control.

Data set [3] has as its system SpADH2 variant H43L/A290I. As to the kind of experiment: Cofactor kinetic assay, H43L/A290I. The note with it: cofactor (= label) varied, 1a fixed at 5 mM. In kind it is biochemical, Sphingobium sp. SYK-6. How it is done: as §1, §2, §3, §4
Data set [4] relates to SpADH2 variant H43L. As to the kind of experiment: Cofactor kinetic assay, H43L. The data set is classed as biochemical, Sphingobium sp. SYK-6. The note with it: cofactor (= label) varied, 1a fixed at 5 mM. How it is done:
as §1, §2, §3, §4

In data set [5] the test system is SpADH2 variant A290I. As to the kind of experiment: Substrate kinetic assay, A290I. In kind it is biochemical, Sphingobium sp. SYK-6. Here is the method: as §1, §2, §3, §4
Data set [6] deals with T1, SpADH2 WT (Sphingobium sp. SYK-6, UniProt G2IIZ8). As to the kind of experiment: Substrate kinetic assay, WT. The data set is classed as biochemical. As to conditions: 1a varied, cofactor (= label) fixed: 5 mM NAD^+ or 7.5 mM p-BANA^+. How it is done: as §1, §2, §3, §4
Data set [7] deals with SpADH2 variant A290I. As to the kind of experiment: Cofactor kinetic assay, A290I. The data set is classed as biochemical, Sphingobium sp. SYK-6. How it is done:
as §1, §2, §3, §4

The target in data set [8] is T1, SpADH2 WT. As to the kind of experiment: Cofactor kinetic assay, WT. The data set is classed as biochemical. As to conditions: cofactor (= label) varied, 1a fixed at 5 mM. How it is done: as §1, §2, §3, §4
Data set [9] relates to SpADH2 variant H43L/A290I. As to the kind of experiment: Substrate kinetic assay, H43L/A290I. The data set is classed as biochemical, Sphingobium sp. SYK-6. How it is done: as §1, §2, §3, §4
The subject of data set [10] is SpADH2 variants (H43L, A290I, H43L/A290I). As to the kind of experiment: Cofactor spectrum (HPLC specific activity), all variants together. In kind it is biochemical, Sphingobium sp. SYK-6. As to conditions: 1a 5 mM, cofactor 7.5 mM, pH 7.5, 30℃. Here is the method: (§7) Fig. 8 Cofactor spectrums of SpADH2 and its variants. The darkness of color for each cofactor stands for the activity. For each cofactor cube, top left: WT, top right: H43L, bottom left: A290I, bottom right: H43L/A290I. (a) Natural cofactors and NMN^+ are shown in purple. (b) tsNCBs are shown in cyan. The evaluation of cofactor spectrum was carried out under following conditions: 50 mM PBS buffer (pH 7.5) and 30℃, with 1a (5 mM) as substrate and different cofactors (7.5 mM) as cofactor. For NAD(P)^+ and NMN^+, 0.05 µg enzyme was added, and for tsNCBs, 5 µg enzyme was added. The results were analyzed by HPLC after 1 h reaction
as §5, §6

In data set [11] the test system is NC(=O)c1ccc[n+]([C@@H]2O[C@H](COP(=O)([O-])OP(=O)(O)OC[C@H]3O[C@@H](n4cnc5c(N)ncnc54)[C@H](O)[C@@H]3O)[C@@H](O)[C@H]2O)c1. As to the kind of experiment: Cofactor kinetic assay, WT. As to conditions: other: WT, cofactor (= label) varied, 1a fixed at 5 mM, pH 7.5, 30°C. In kind it is biochemical, Sphingobium sp. SYK-6. Here is the method: as §1, §2, §3, §4
Data set [12] has as its system SpADH2. As to the kind of experiment: Preliminary evaluation of NCB usage in oxidation of syringyl alcohol (HPLC). The data set is classed as biochemical, Sphingobium sp. SYK-6. The note with it: preliminary assay: 1a 1 mM, NCB 10 mM, pH 7.0, 30℃, 1 h. Here is the method:
Sphingobium sp. SYK-6 belongs to genus Sphingomonas, and a search in UniProtKB identified 19 ADHs from this strain, including 5 PQQ-dependent and the remaining NAD^+/NADP^+-dependent enzymes. Two sequences annotated as aryl-alcohol dehydrogenases (SLG_34580 and SLG_24930) (Table. S1) were selected for heterologous expression (Fig. S1) and named SpADH1 and SpADH2, respectively. Their ability to utilize NCBs was assessed by oxidation of syringyl alcohol (1a) to produce syringaldehyde (1b) (Fig. 1a).
Fig. 1 (a) Reaction scheme of SpADH2-catalyzed oxidation of syringyl alcohol. (b) Specific activity of SpADH2 toward four NCBs. The evaluation of NCBs usage by SpADH2 was carried out under following conditions: 50 mM PBS buffer (pH 7.0) and 30℃, with 1a (1 mM) as substrate and 4 typical NCBs (10 mM) as cofactor. A total of 0.1 mg/mL enzyme was added to a 200 µL reaction mixture, and was analyzed by HPLC after 1 h reaction
Reaction samples were analyzed using Agilent 1260 Infinity II LC system under reversed phase condition. Column: Agilent C18 column. Analytical conditions for 1a and 1b: mobile phase: 50% water: 50% acetonitrile. The retention time for standard product 1b was 3.27 min, under flow rate of 1 mL·min^− 1and temperature of 30°C (Fig. S4).

Data set [13] deals with SpADH2 variant H43L. As to the kind of experiment: Cofactor spectrum (HPLC specific activity), variant H43L. The data set is classed as biochemical, Sphingobium sp. SYK-6. The note with it: 1a 5 mM, cofactor 7.5 mM, pH 7.5, 30℃, 5 µg enzyme. How it is done: as §7, §5, §6
Data set [14] relates to SpADH2 variant H43L/A290I. As to the kind of experiment: Cofactor spectrum (HPLC specific activity), variant H43L/A290I. The data set is classed as biochemical, Sphingobium sp. SYK-6. The note with it: 1a 5 mM, cofactor 7.5 mM, pH 7.5, 30℃, 5 µg enzyme. How it is done: as §7, §5, §6
Setting [15] is: 1a varied, cofactor (= label) fixed: 5 mM NAD^+ or 7.5 mM p-BANA^+.
The mark [16] stands for this setting: substrate kinetics, cofactor = label.

T1 sequence (G2IIZ8 1-372): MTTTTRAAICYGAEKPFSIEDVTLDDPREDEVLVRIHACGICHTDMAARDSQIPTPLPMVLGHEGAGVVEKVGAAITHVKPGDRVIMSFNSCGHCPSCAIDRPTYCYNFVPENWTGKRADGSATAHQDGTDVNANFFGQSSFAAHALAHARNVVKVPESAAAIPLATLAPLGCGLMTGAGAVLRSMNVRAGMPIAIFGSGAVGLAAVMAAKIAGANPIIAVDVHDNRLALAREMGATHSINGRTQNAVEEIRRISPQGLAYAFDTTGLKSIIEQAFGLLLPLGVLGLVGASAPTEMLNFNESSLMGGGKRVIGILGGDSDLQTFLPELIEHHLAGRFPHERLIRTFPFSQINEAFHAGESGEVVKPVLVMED

One may read the Km as the concentration of substrate that gives half-maximal velocity. Consider `NC(=O)c1ccc[n+]([C@@H]2O[C@H](COP(=O)([O-])OP(=O)(O)OC[C@H]3O[C@@H](n4cnc5c(N)ncnc54)[C@H](O)[C@@H]3O)[C@@H](O)[C@H]2O)c1` [NAD^+, reference compound], for which the kcat with SpADH2 variant H43L [1] is reported as 102 ± 2.3 min^− 1; in data set [3], 12.6 ± 0.2 min^− 1; with SpADH2 variant H43L [4], 57.8 ± 1.2 min^− 1; in the data set with SpADH2 variant A290I [5] (setting [15]), 41.4 ± 1.4 min^− 1; on SpADH2 WT [6], 134 ± 2.9 min^− 1; with SpADH2 variant A290I [7] (cofactor (= label) varied, 1a fixed at 5 mM), 28.3 ± 0.6 min^− 1. The kcat at SpADH2 WT [8] was 58.7 ± 1.5 min^− 1; in data set [9] (setting [15]) it was 18.9 ± 0.2 min^− 1. The “specific activity of SpADH2 with the cofactor” value in the data set on SpADH2 [2] (0.05 µg SpADH2, 1 h) came out at 4.40 U/mg. For the same molecule, the Km in [3] (pH 7.5, 30°C) was determined as 365 ± 25 µM; with SpADH2 variant H43L [4] (pH 7.5, 30°C), 99 ± 8 µM; with SpADH2 variant A290I [7] (cofactor (= label) varied, 1a fixed at 5 mM, pH 7.5, 30°C), 9 ± 1 µM. For the same molecule, in the data set on SpADH2 variant A290I [5] (setting [16]), the “substrate inhibition (in words)” value is recorded as “no substrate inhibition was observed”. In addition, the “fold higher catalytic efficiency (kcat/Km) than WT” value in the data set on SpADH2 variant A290I [7] (cofactor kinetics, cofactor = label) was found to be 1.5 fold. Besides, the “fold improvement in substrate inhibition (Ki) vs WT” value in data set [9] (setting [16]) is “up to 9 fold”. The “catalytic activity of all variants with the cofactor (in words)” value in [10] was “relatively lower catalytic activity”.

Consider SpADH2 WT (Sphingobium sp. SYK-6), for which the Km in [11] worked out at 28 ± 3 µM.

On to `NC(=O)c1ccc[n+](CCc2ccccc2)c1` [P2NA^+, 3-carbamoyl-1-phenethylpyridin-1-ium], for which the “utilization of the NCB by SpADH2 (in words)” value in the data set with SpADH2 [12] is “could not be utilized”. In addition, in the data set with SpADH2 [2], the “utilization of the tsNCB by SpADH2 (in words)” value was “No detectable activity”. In the data set on SpADH2 variant H43L [13], the “utilization of the tsNCB (in words)” value is listed as “exhibited activity”.

Regarding `NC(=O)c1ccc[n+](CCCc2ccccc2)c1` [P3NA^+, 3-carbamoyl-1-(3-phenylpropyl)pyridin-1-ium], the “utilization of the NCB by SpADH2 (in words)” value in the data set with SpADH2 [12] is recorded as “could not be utilized”. In addition, in the data set on SpADH2 [2], the “utilization of the tsNCB by SpADH2 (in words)” value is recorded as “No detectable activity”. Moreover, the “utilization of the tsNCB (in words)” value in data set [14] is listed as “acquired capability of utilizing”.
